The molecules below were run against GST tagged truncated human mutant G2019S LRRK2 (Homo sapiens (Human), UniProt Q5S007, G2019S) (assay: LRRK2 Km ATP LanthaScreen Assay). Settings: G2019S LRRK2, 134 μM ATP (Km ATP), mean values.
Sequence of GST tagged truncated human mutant G2019S LRRK2 (Q5S007 970-2527 G2019S): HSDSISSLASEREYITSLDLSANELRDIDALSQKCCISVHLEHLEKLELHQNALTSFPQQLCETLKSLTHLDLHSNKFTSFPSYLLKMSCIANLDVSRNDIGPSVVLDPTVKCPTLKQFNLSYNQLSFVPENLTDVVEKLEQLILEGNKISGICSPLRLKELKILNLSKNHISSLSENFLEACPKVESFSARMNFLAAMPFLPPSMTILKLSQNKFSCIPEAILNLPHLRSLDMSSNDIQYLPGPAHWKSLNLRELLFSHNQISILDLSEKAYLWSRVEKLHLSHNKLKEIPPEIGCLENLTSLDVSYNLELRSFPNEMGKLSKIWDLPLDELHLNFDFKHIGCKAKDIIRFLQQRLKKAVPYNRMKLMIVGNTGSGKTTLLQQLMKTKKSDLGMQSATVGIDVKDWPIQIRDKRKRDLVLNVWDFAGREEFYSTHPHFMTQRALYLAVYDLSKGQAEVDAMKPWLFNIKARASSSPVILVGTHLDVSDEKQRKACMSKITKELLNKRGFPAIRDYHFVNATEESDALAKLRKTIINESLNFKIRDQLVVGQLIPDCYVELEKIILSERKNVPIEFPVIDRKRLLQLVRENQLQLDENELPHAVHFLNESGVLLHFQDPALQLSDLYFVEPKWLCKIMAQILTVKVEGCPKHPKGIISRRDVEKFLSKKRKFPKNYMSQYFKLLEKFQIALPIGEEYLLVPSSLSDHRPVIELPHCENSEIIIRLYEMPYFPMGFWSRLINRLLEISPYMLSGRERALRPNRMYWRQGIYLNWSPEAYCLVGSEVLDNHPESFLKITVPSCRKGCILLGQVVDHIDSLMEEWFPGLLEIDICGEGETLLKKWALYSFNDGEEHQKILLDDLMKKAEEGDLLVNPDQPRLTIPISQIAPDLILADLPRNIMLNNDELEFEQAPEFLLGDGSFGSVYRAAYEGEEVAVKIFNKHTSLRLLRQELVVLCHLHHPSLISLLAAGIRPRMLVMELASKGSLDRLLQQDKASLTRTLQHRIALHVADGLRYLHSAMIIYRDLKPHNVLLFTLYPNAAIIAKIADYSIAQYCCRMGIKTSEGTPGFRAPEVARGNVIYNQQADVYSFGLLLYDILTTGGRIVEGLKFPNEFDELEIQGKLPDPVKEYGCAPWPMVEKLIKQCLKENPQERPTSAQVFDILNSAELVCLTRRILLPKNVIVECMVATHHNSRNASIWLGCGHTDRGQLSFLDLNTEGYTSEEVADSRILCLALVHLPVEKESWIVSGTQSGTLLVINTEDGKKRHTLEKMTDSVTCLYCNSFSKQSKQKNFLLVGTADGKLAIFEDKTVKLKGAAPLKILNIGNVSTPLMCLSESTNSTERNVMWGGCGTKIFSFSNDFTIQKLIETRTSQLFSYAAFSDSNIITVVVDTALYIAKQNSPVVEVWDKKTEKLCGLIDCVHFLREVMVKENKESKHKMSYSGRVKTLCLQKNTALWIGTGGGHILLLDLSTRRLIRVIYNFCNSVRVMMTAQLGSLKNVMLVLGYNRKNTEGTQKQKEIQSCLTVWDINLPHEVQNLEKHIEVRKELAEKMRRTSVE
Type: biochemical
Method in brief: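 Enzyme (GST-tagged, truncated) was preincubated with compound for 15 min at RT in 50 mM Tris pH 8.5, 10 mM MgCl2, 0.01% Brij-35, 1 mM EGTA, 2 mM DTT and 0.05 mM orthovanadate. Fluorescein-LRRKtide and 134 μM ATP (Km) were then added for 90 min. EDTA and Tb-anti-pERM antibody stopped the reaction; the TR-FRET 520/495 ratio gave 4-parameter IC50s, reported as mean pIC50.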
For `N#CC1(CN2CCC(c3cc4nc(Nc5cnn(C6CC6)c5Cl)ncc4cc3Cl)CC2)CC1` [Ex-4.78, 1-[(4-{6-chloro-2-[(5-chloro-1-cyclopropyl-1H-pyrazol-4-yl)amino]quinazolin-7-yl}piperidin-1-yl)methyl]cyclopropane-1-carbonitrile], the “LRRK2 pIC50” value was 7.95. In the case of `CC1(N2CC[C@H](c3cc4nc(Nc5cnn(C6CC6(F)F)c5Cl)ncc4cc3Cl)[C@@H](F)C2)COC[C@@H]1O` (single isomer, unassigned) [Ex-4.10, (R)(3S,4S)(3S,4S) or (R)(3S,4S)(3R,4R) or (R)(3R,4R)(3S,4S) or (R)(3R,4R)(3R,4R) or (S)(3S,4S)(3S,4S) or (S)(3S,4S)(3R,4R) or (S)(3R,4R)(3S,4S) or (S)(3R,4R)(3R,4R) 4-(6-chloro-2-((5-chloro-1-(2,2-difluorocyclopropyl)-1H-pyrazol-4-yl)amino)quinazolin-7-yl)-3-fluoropiperidin-1-yl)-4-methyltetrahydrofuran-3-ol], the “LRRK2 pIC50” value is reported as >9.20. `Cc1nsc(Nc2ncc3cc(Cl)c([C@@H]4CCN(C5CCOC5)C[C@H]4F)cc3n2)c1Cl` (single isomer, unassigned) [Ex-8.20, (3S,4S)(S) or (3S,4S)(R) or (3R,4R)(S) or (3R,4R)(R) 6-chloro-N-(4-chloro-3-methyl-1,2-thiazol-5-yl)-7-[3-fluoro-1-(oxolan-3-yl)piperidin-4-yl]quinazolin-2-amine] was tested, and the “LRRK2 pIC50” value was 8.53. `Cc1c(Nc2ncc3cc(Cl)c([C@@H]4CCN([C@H]5COC[C@H]5O)C[C@H]4F)cc3n2)cnn1C1CC1(F)F` (single isomer, unassigned) [Ex-4.180, (R)(3S,4S)(3S,4S) or (R)(3S,4S)(3R,4R) or (R)(3R,4R)(3S,4S) or (R)(3R,4R)(3R,4R) or (S)(3S,4S)(3S,4S) or (S)(3S,4S)(3R,4R) or (S)(3R,4R)(3S,4S) or (S)(3R,4R)(3R,4R) 4-(4-(6-chloro-2-((1-(2,2-difluorocyclopropyl)-5-methyl-1H-pyrazol-4-yl)amino)quinazolin-7-yl)-3-fluoropiperidin-1-yl)tetrahydrofuran-3-olyl]amino}quinazolin-7-yl)-3-fluoropiperidin-1-yl]oxolan-3-ol] was tested, and the “LRRK2 pIC50” value was >9.20. For `CC(n1ncc(Nc2ncc3cc(Cl)c([C@H]4CCN(C)C[C@@H]4F)cc3n2)c1Cl)C(C)(C)O` (single isomer, unassigned) [Ex-4.66, (R)(3S,4S) or (R)(3R,4R) or (S)(3S,4S) or (S)(3R,4R) 3-(5-chloro-4-{[6-chloro-7-(3-fluoro-1-methylpiperidin-4-yl)quinazolin-2-yl]amino}-1H-pyrazol-1-yl)-2-methylbutan-2-ol], the “LRRK2 pIC50” value was 8.70. In the case of `Cn1ncc(Nc2ncc3cc(Cl)c([C@@H]4CCN([C@]5(C)COC[C@@H]5O)C[C@H]4F)cc3n2)c1Cl` (single isomer, unassigned) [Ex-4.233, (3S,4S)(3S,4S) or (3S,4S)(3R,4R) or (3R,4R)(3S,4S) or (3R,4R)(3R,4R) 4-(4-{6-chloro-2-[(5-chloro-1-methyl-1H-pyrazol-4-yl)amino]quinazolin-7-yl}-3-fluoropiperidin-1-yl)-4-methyloxolan-3-ol], the “LRRK2 pIC50” value is reported as >9.20. In the case of `Clc1cc2cnc(Nc3cnn(C4CC4)c3Cl)nc2cc1C1CC2COCC(C1)N2C1COC1` (stereo not drawn) [Ex-4.113, cis or trans 6-chloro-N-(5-chloro-1-cyclopropyl-1H-pyrazol-4-yl)-7-(9-(oxetan-3-yl)-3-oxa-9-azabicyclo[3.3.1]nonan-7-yl)quinazolin-2-amine], the “LRRK2 pIC50” value is reported as 8.11. For `Cc1c(Nc2ncc3cc(Cl)c(C4CCN(C[C@H](O)c5ccc(F)c(F)c5)CC4)cc3n2)cnn1C1CC1` [Ex-4.199, (1R)-2-(4-{6-chloro-2-[(1-cyclopropyl-5-methyl-1H-pyrazol-4-yl)amino]quinazolin-7-yl}piperidin-1-yl)-1-(3,4-difluorophenyl)ethan-1-ol], the “LRRK2 pIC50” value was 7.96. `CC(C)(O)Cn1ncc(Nc2ncc3cc(Cl)c([C@H]4CCN(C5COC5)C[C@@H]4F)cc3n2)c1Cl` (single isomer, unassigned) [Ex-4.44, (3S,4S) or (3R,4R) 1-[5-chloro-4-({6-chloro-7-[3-fluoro-1-(oxetan-3-yl)piperidin-4-yl]quinazolin-2-yl}amino)-1H-pyrazol-1-yl]-2-methylpropan-2-ol] was tested, and the “LRRK2 pIC50” value was >9.20. For `[2H]C1(N2CCC(c3cc4nc(Nc5cnn(CC(C)(C)O)c5Cl)ncc4cc3Cl)CC2)COC1` [Ex-4.59, 1-(5-chloro-4-((6-chloro-7-(1-(oxetan-3-yl-3-d)piperidin-4-yl)quinazolin-2-yl)amino)-1H-pyrazol-1-yl)-2-methylpropan-2-ol], the “LRRK2 pIC50” value was >9.20. With `CN1CCC(F)(c2cc3nc(Nc4cnn(C5CC5)c4Cl)ncc3cc2Cl)CC1` [Ex-4.36, 6-chloro-N-(5-chloro-1-cyclopropyl-1H-pyrazol-4-yl)-7-(4-fluoro-1-methylpiperidin-4-yl)quinazolin-2-amine] the “LRRK2 pIC50” value was 8.29. `Clc1cc2cnc(Nc3cnn(CC4CC4)c3Cl)nc2cc1C1CCN(C2COC2)CC1` [Ex-4.16, 6-chloro-N-[5-chloro-1-(cyclopropylmethyl)-1H-pyrazol-4-yl]-7-[1-(oxetan-3-yl)piperidin-4-yl]quinazolin-2-amine] was tested, and the “LRRK2 pIC50” value was >9.20. For `CC1OCC1N1CCC(c2cc3nc(Nc4cnn(C5CC5)c4Cl)ncc3cc2Cl)CC1` (single isomer, unassigned) [Ex-4.47, (2R,3R) or (2S,3S) or (2S,3R) or (2R,3S) 6-chloro-N-(5-chloro-1-cyclopropyl-1H-pyrazol-4-yl)-7-[1-(2-methyloxetan-3-yl)piperidin-4-yl]quinazolin-2-amine], the “LRRK2 pIC50” value was 7.62. `Cc1cc2cnc(Nc3cnn(C45CC(C4)C5)c3C)nc2cc1[C@@H]1CCN([C@@H]2COC[C@@H]2O)C[C@H]1F` (single isomer, unassigned) [Ex-4.165, (3S,4S)(3S,4S) or (3S,4S)(3R,4R) or (3R,4R)(3S,4S) or (3R,4R)(3R,4R) 4-[4-(2-{[1-(bicyclo[1.1.1]pentan-1-yl)-5-methyl-1H-pyrazol-4-yl]amino}-6-methylquinazolin-7-yl)-3-fluoropiperidin-1-yl]oxolan-3-ol] was tested, and the “LRRK2 pIC50” value was 8.67. In the case of `Cc1c(Nc2ncc3cc(Cl)c(C4CCN([C@H]5COC[C@H]5O)CC4)cc3n2)cnn1C` (single isomer, unassigned) [Ex-2.67, (3S,4S) or (3R,4R) 4-(4-{6-chloro-2-[(1,5-dimethyl-1H-pyrazol-4-yl)amino]quinazolin-7-yl}piperidin-1-yl)oxolan-3-ol], the “LRRK2 pIC50” value is reported as >9.20. With `Cc1c(Nc2ncc3cc(Cl)c(C4CCN(C[C@@H](O)c5cc(F)cc(F)c5)CC4)cc3n2)cnn1C1CC1` [Ex-4.197, (1S)-2-(4-{6-chloro-2-[(1-cyclopropyl-5-methyl-1H-pyrazol-4-yl)amino]quinazolin-7-yl}piperidin-1-yl)-1-(3,5-difluorophenyl)ethan-1-ol] the “LRRK2 pIC50” value was 8.76. `Cc1c(Nc2ncc3cc(Cl)c(C4CCN(C5COCC5F)CC4)cc3n2)cnn1C1CC1` (single isomer, unassigned) [Ex-7.4, (3S,4S) or (3R,4R) or (3S,4R) or (3R,4S) 6-chloro-N-(1-cyclopropyl-5-methyl-1H-pyrazol-4-yl)-7-[1-(4-fluorooxolan-3-yl)piperidin-4-yl]quinazolin-2-amine] was tested, and the “LRRK2 pIC50” value was >9.20. With `Cc1cc(Nc2ncc3cc(Cl)c(C4CCN([C@]5(C)COC[C@@H]5O)CC4)cc3n2)n(C)n1` (single isomer, unassigned) [Ex-1.25, (3S,4S) or (3R,4R) 4-(4-{6-chloro-2-[(1,3-dimethyl-1H-pyrazol-5-yl)amino]quinazolin-7-yl}piperidin-1-yl)-4-methyloxolan-3-ol] the “LRRK2 pIC50” value was 8.99. For `F[C@@H]1CN(C2COC2)CC[C@H]1c1cc2nc(Nc3cnn(C4CC4)c3Cl)ncc2cc1Cl` (single isomer, unassigned) [Ex-4.34, (3S,4S) or (3R,4R) 6-chloro-N-(5-chloro-1-cyclopropyl-1H-pyrazol-4-yl)-7-[3-fluoro-1-(oxetan-3-yl)piperidin-4-yl]quinazolin-2-amine], the “LRRK2 pIC50” value was 9.12. With `Cc1c(Nc2ncc3cc(Cl)c([C@@H]4CCN(C5COC[C@@H]5O)C[C@H]4F)cc3n2)cnn1C1CC1` (single isomer, unassigned) [Ex-4.127, (3S,4S)(3S,4S) or (3S,4S)(3R,4R) or (3R,4R)(3S,4S) or (3R,4R)(3R,4R) 4-[4-{6-chloro-2-[(1-cyclopropyl-5-methyl-1H-pyrazol-4-yl)amino]quinazolin-7-yl}-3-fluoropiperidin-1-yl]oxolan-3-ol] the “LRRK2 pIC50” value was >9.20. For `Clc1cc2cnc(Nc3cnn(CC4CC4)c3Cl)nc2cc1C1CCNCC1` [Ex-4.90, 6-chloro-N-[5-chloro-1-(cyclopropylmethyl)-1H-pyrazol-4-yl]-7-(piperidin-4-yl)quinazolin-2-amine], the “LRRK2 pIC50” value was >9.20.

Same assay, conditions: G2019S LRRK2, 134 μM ATP (Km ATP), mean values; read-out: LRRK2 pIC50 (converted)
In the case of `Cc1c(Nc2ncc3cc(Cl)c(C4CCN(CC(O)Cc5ccccc5)CC4)cc3n2)cnn1C1CC1` (single isomer, unassigned) [Ex-4.219, (S) or (R) 1-(4-{6-chloro-2-[(1-cyclopropyl-5-methyl-1H-pyrazol-4-yl)amino]quinazolin-7-yl}piperidin-1-yl)-3-phenylpropan-2-ol], the IC50 is reported as 4.68 nM. `Cc1c(Nc2ncc3cc(Cl)c(C4CCN(C5(C)COC5)CC4)cc3n2)cnn1C1CC1(F)F` (single isomer, unassigned) [Ex-2.30, (S) or (R) 6-chloro-N-[1-(2,2-difluorocyclopropyl)-5-methyl-1H-pyrazol-4-yl]-7-[1-(3-methyloxetan-3-yl)piperidin-4-yl]quinazolin-2-amine] showed an IC50 of 0.646 nM. With `F[C@@H]1CNCC[C@H]1c1cc2nc(Nc3cnn(C4CC4)c3Cl)ncc2cc1Cl` (single isomer, unassigned) [Ex-4.2, (3S,4S) or (3R,4R) 6-chloro-N-(5-chloro-1-cyclopropyl-1H-pyrazol-4-yl)-7-(3-fluoropiperidin-4-yl)quinazolin-2-amine] the IC50 was < 0.631 nM.

— patent US12540131B2 (Merck Sharp & Dohme LLC, priority 2019, dated 2026)
